According to ChEMBL document CHEMBL5321264, “Proteomic Changes in Methicillin-Resistant Staphylococcus aureus Exposed to Cannabinoids” (2023):
In brackets after ≈: the same amount, converted by molar mass. Activity calls are given as the source filed them. The rule behind the calls is not given here.

How the values were obtained:
Staphylococcus aureus [1] = assay: Bactericidal activity against methicillin-resistant Staphylococcus aureus CC398 assessed as reduction in bacterial viability measured after 15 hrs by real-time microscopic analysis; format: functional
Staphylococcus aureus [2] = assay: Antibacterial activity against methicillin-resistant Staphylococcus aureus CC398 assessed as reduction in bacterial growth measured after 4 hrs by real-time microscopic analysis; format: functional
[3] = Selectivity ratio of MBC for bactericidal activity against methicillin-resistant Staphylococcus aureus CC398 to MIC for antibacterial activity against methicillin-resistant Staphylococcus aureus CC398; format: functional
Staphylococcus aureus [4] = assay: Potentiation of methicillin-induced antibacterial activity against methicillin-resistant Staphylococcus aureus CC398 assessed as ratio of methicillin MBC to MIC at 2.5 microg/ml; format: functional; details: dose 2.5 µg/ml
Staphylococcus aureus [5] = assay: Potentiation of methicillin-induced antibacterial activity against methicillin-resistant Staphylococcus aureus CC398 assessed as methicillin MIC at 2.5 microg/ml; format: functional; details: dose 2.5 µg/ml
Staphylococcus aureus [6] = assay: Potentiation of methicillin-induced antibacterial activity against methicillin-resistant Staphylococcus aureus CC398 assessed as methicillin MBC at 2.5 microg/ml; format: functional; details: dose 2.5 µg/ml
Staphylococcus aureus [7] = assay: Potentiation of methicillin-induced antibacterial activity against methicillin-resistant Staphylococcus aureus CC398 assessed as reduction in methicillin MIC at 2.5 microg/ml relative to control; format: functional; design: scale not given: the % may be the effect or the level left; details: dose 2.5 µg/ml
Staphylococcus aureus [8] = assay: Antibacterial activity against methicillin-resistant Staphylococcus aureus CC398 assessed as increase in cell density at 2.5 microg/ml measured after 15 hrs by real-time microscopic analysis relative to control; format: functional; details: dose 2.5 µg/ml
Staphylococcus aureus [9] = assay: Upregulation of PBP2 protein expression in methicilin-resistant Staphylococcus aureus CC398 in the presence of methicillin by gene ontology analysis; format: functional
Staphylococcus aureus [10] = assay: Upregulation of ATP synthase subunit beta expression in methicillin-resistant Staphylococcus aureus CC398 in the presence of methicillin by gene ontology analysis; format: functional
Staphylococcus aureus [11] = assay: Downregulation of phosphoglycerate kinase expression in methicillin-resistant Staphylococcus aureus CC398 in the presence of methicillin by gene ontology analysis; format: functional
Staphylococcus aureus [12] = assay: Upregulation of GrpE protein expression in methicillin-resistant Staphylococcus aureus CC398 in the presence of methicillin by gene ontology analysis; format: functional
Staphylococcus aureus [13] = assay: Downregulation of aminoacyl-tRNA-synthetase expression in methicillin-resistant Staphylococcus aureus CC398 in the presence of methicillin by gene ontology analysis; format: functional
Staphylococcus aureus [14] = assay: Downregulation of Threonine synthase expression in methicillin-resistant Staphylococcus aureus CC398 in the presence of methicillin by gene ontology analysis; format: functional
Staphylococcus aureus [15] = assay: Downregulation of cysteine synthase expression in methicillin-resistant Staphylococcus aureus CC398 in the presence of methicillin by gene ontology analysis; format: functional
Staphylococcus aureus [16] = assay: Downregulation of serine hydroxy methyltransferase expression in methicillin-resistant Staphylococcus aureus CC398 in the presence of methicillin by gene ontology analysis; format: functional
Staphylococcus aureus [17] = assay: Downregulation of Carbamoyl-phosphate synthase small chain expression in methicillin-resistant Staphylococcus aureus CC398 in the presence of methicillin by gene ontology analysis; format: functional
Staphylococcus aureus [18] = assay: Antibacterial activity against methicillin-resistant Staphylococcus aureus CC398 assessed as inhibition of bacterial growth at higher concentration incubated for 15 hrs by real-time microscopic analysis; format: functional, organism-based
Staphylococcus aureus [19] = assay: Antibacterial activity against methicillin-resistant Staphylococcus aureus CC398 assessed as inhibition of bacterial growth at lower concentration incubated for 15 hrs by real-time microscopic analysis; format: functional, organism-based
Staphylococcus aureus [20] = assay: Upregulation of ATP synthase subunit B expression in methicillin-resistant Staphylococcus aureus CC398 in the presence of methicillin by gene ontology analysis; format: functional
Staphylococcus aureus [21] = assay: Upregulation of ATP synthase subunit alpha expression in methicillin-resistant Staphylococcus aureus CC398 in the presence of methicillin by gene ontology analysis; format: functional
Staphylococcus aureus [22] = assay: Upregulation of ATP-dependent protease ATPase subunit […] expression in methicillin-resistant Staphylococcus aureus CC398 in the presence of methicillin by gene ontology analysis; format: functional
Staphylococcus aureus [23] = assay: Downregulation of pyruvate kinase expression in methicillin-resistant Staphylococcus aureus CC398 in the presence of methicillin by gene ontology analysis; format: functional
Staphylococcus aureus [24] = assay: Downregulation of superoxide dismutase expression in methicillin-resistant Staphylococcus aureus CC398 in the presence of methicillin by gene ontology analysis; format: functional
Staphylococcus aureus [25] = assay: Upregulation of enolase expression in methicillin-resistant Staphylococcus aureus CC398 by gene ontology analysis; format: functional
Staphylococcus aureus [26] = assay: Downregulation of catalase expression in methicillin-resistant Staphylococcus aureus CC398 in the presence of methicillin by gene ontology analysis; format: functional
Staphylococcus aureus [27] = assay: Antibacterial activity against methicillin-resistant Staphylococcus aureus CC398 assessed as increase in cell density at 1 microg/ml measured after 15 hrs by real-time microscopic analysis relative to control; format: functional; details: dose 1 µg/ml
Staphylococcus aureus [28] = assay: Antibacterial activity against methicillin-resistant Staphylococcus aureus CC398 assessed as increase in cell growth rate by measuring maximal response at 1 microg/ml after 15 hrs by real-time microscopic analysis relative to control; format: functional; details: dose 1 µg/ml
Staphylococcus aureus [29] = assay: Upregulation of ATP synthase subunit beta expression in Staphylococcus aureus CC398 by gene ontology analysis; format: functional
Staphylococcus aureus [30] = assay: Upregulation of ATP synthase subunit b expression in Staphylococcus aureus CC398 by gene ontology analysis; format: functional
Staphylococcus aureus [31] = assay: Upregulation of ATP synthase subunit alpha expression in Staphylococcus aureus CC398 by gene ontology analysis; format: functional
Staphylococcus aureus [32] = assay: Upregulation of PBP2 protein expression in Staphylococcus aureus CC398 by gene ontology analysis; format: functional
Staphylococcus aureus [33] = assay: Antibacterial activity against methicillin-resistant Staphylococcus aureus CC398 assessed as increase in cell density at 1.25 microg/ml by real-time microscopic analysis relative to control; format: functional; details: dose 1.25 µg/ml; time 15 hrs
Staphylococcus aureus [34] = assay: Upregulation of GTP-binding protein typeA expression in methicillin-resistant Staphylococcus aureus CC398 in the presence of methicillin by gene ontology analysis; format: functional
Staphylococcus aureus [35] = assay: Upregulation of proline-tRNA ligase expression in methicillin-resistant Staphylococcus aureus CC398 in the presence of methicillin by gene ontology analysis; format: functional
Staphylococcus aureus [36] = assay: Upregulation of elongation factor P expression in methicillin-resistant Staphylococcus aureus CC398 in the presence of methicillin by gene ontology analysis; format: functional
Staphylococcus aureus [37] = assay: Downregulation of isocitrate dehydrogenase expression in methicillin-resistant Staphylococcus aureus CC398 in the presence of methicillin by gene ontology analysis; format: functional
Staphylococcus aureus [38] = assay: Downregulation of succinate-CoA synthase expression in methicillin-resistant Staphylococcus aureus CC398 in the presence of methicillin by gene ontology analysis; format: functional
Staphylococcus aureus [39] = assay: Upregulation of peptide chain release factor 1 expression in methicillin-resistant Staphylococcus aureus CC398 in the presence of methicillin; format: functional
Staphylococcus aureus [40] = assay: Antibacterial activity against methicillin-resistant Staphylococcus aureus CC398 assessed as increase in cell density at 5 microg/ml measured after 15 hrs by real-time microscopic analysis relative to control; format: functional; details: dose 5 µg/ml
Staphylococcus aureus [41] = assay: Downregulation of fructose-1,6-bisphosphate aldolase expression in methicillin-resistant Staphylococcus aureus CC398 in the presence of methicillin by gene ontology analysis; format: functional
Staphylococcus aureus [42] = assay: Downregulation of 2,3-bisphosphoglycerate-independent phosphoglycerate mutase expression in methicillin-resistant Staphylococcus aureus CC398 in the presence of methicillin by gene ontology analysis; format: functional
Staphylococcus aureus [43] = assay: Downregulation of elongation factor Tu expression in methicillin-resistant Staphylococcus aureus CC398 in the presence of methicillin by gene ontology analysis; format: functional
Staphylococcus aureus [44] = assay: Downregulation of elongation factor G expression in methicillin-resistant Staphylococcus aureus CC398 in the presence of methicillin by gene ontology analysis; format: functional
Staphylococcus aureus [45] = assay: Downregulation of arginine-tRNA-synthetase expression in methicillin-resistant Staphylococcus aureus CC398 in the presence of methicillin by gene ontology analysis; format: functional
Staphylococcus aureus [46] = assay: Potentiation of methicillin-induced antibacterial activity against methicillin-resistant Staphylococcus aureus CC398 assessed as ratio of methicillin MBC to MIC at 7.5 microg/ml; format: functional; details: dose 7.5 µg/ml
Staphylococcus aureus [47] = assay: Potentiation of methicillin-induced antibacterial activity against methicillin-resistant Staphylococcus aureus CC398 assessed as methicillin MIC at 7.5 microg/ml; format: functional; details: dose 7.5 µg/ml
Staphylococcus aureus [48] = assay: Potentiation of methicillin-induced antibacterial activity against methicillin-resistant Staphylococcus aureus CC398 assessed as methicillin MBC at 7.5 microg/ml; format: functional; details: dose 7.5 µg/ml
Staphylococcus aureus [49] = assay: Upregulation of DNA-directed RNA polymerase subunit omega expression in Staphylococcus aureus CC398 in the presence of methicillin by gene ontology analysis; format: functional
Staphylococcus aureus [50] = assay: Upregulation of SepF expression in Staphylococcus aureus CC398 in the presence of methicillin by gene ontology analysis; format: functional
Staphylococcus aureus [51] = assay: Downregulation of isoleucine-tRNA-synthetase expression in methicillin-resistant Staphylococcus aureus CC398 in the presence of methicillin by gene ontology analysis; format: functional
Staphylococcus aureus [52] = assay: Downregulation of valine-tRNA-synthetase expression in methicillin-resistant Staphylococcus aureus CC398 in the presence of methicillin by gene ontology analysis; format: functional

Structure (SMILES)	MBC (Staphylococcus aureus [1]) [µg/mL]	MIC (Staphylococcus aureus [2]) [µg/mL]	Ratio [3]	Ratio (Staphylococcus aureus [4])	MBC (Staphylococcus aureus [5]) [µg/mL]	MIC (Staphylococcus aureus [6]) [µg/mL]	Activity (Staphylococcus aureus [7]) [%]	Activity (Staphylococcus aureus [10])	Activity (Staphylococcus aureus [11])	Activity (Staphylococcus aureus [12])	Activity (Staphylococcus aureus [18])	Activity (Staphylococcus aureus [19])	Activity (Staphylococcus aureus [20])	Activity (Staphylococcus aureus [21])	Activity (Staphylococcus aureus [23])	Activity (Staphylococcus aureus [24])	Activity (Staphylococcus aureus [25])	Activity (Staphylococcus aureus [26])	other results
CCCCCc1cc(O)c2c(c1)OC(C)(C)c1ccc(C)cc1-2 [CANNABINOL]	7.5 (≈ 24.2 µM)	2.5 (≈ 8.05 µM)	3	16	1	0.063	87.5	Active	Active	Active	Active	inactive	Active	Active	Active	Active	Active	Active	Activity (Staphylococcus aureus [8]): 29%; Activity (Staphylococcus aureus [9]): Active; Activity (Staphylococcus aureus [13]): Active; Activity (Staphylococcus aureus [14]): Active; Activity (Staphylococcus aureus [15]): Active; Activity (Staphylococcus aureus [16]): Active; Activity (Staphylococcus aureus [17]): Active; Activity (Staphylococcus aureus [22]): Active
COc1cccc(OC)c1C(=O)N[C@@H]1C(=O)N2[C@@H]1SC(C)(C)[C@@H]2C(=O)O [METHICILLIN]	8 (≈ 21 µM)	4 (≈ 10.5 µM)	–	–	–	–	–	–	–	–	–	–	–	–	–	–	–	–	Activity (Staphylococcus aureus [27]): 43%; Activity (Staphylococcus aureus [28]): 143%; Activity (Staphylococcus aureus [29]): Active; Activity (Staphylococcus aureus [30]): Active; Activity (Staphylococcus aureus [31]): Active; Activity (Staphylococcus aureus [32]): Active
C=C(C)[C@@H]1CCC(C)=C[C@H]1c1c(O)cc(CCCCC)cc1O [CANNABIDIOL]	5 (≈ 15.9 µM)	2.5 (≈ 7.95 µM)	2	16	1	0.063	87.5	Active	Active	–	Active	inactive	Active	Active	–	Active	Active	Active	Activity (Staphylococcus aureus [33]): 19%; Activity (Staphylococcus aureus [34]): Active; Activity (Staphylococcus aureus [35]): Active; Activity (Staphylococcus aureus [36]): Active; Activity (Staphylococcus aureus [37]): Active; Activity (Staphylococcus aureus [38]): Active; Activity (Staphylococcus aureus [39]): Active
CCCCCc1cc(O)c2c(c1)OC(C)(C)[C@@H]1CCC(C)=C[C@@H]21 [DRONABINOL]	20 (≈ 63.6 µM)	7.5 (≈ 23.8 µM)	2.67	–	–	–	93.8	Active	Active	Active	Active	inactive	Active	Active	Active	Active	Active	–	Activity (Staphylococcus aureus [40]): 45%; Activity (Staphylococcus aureus [41]): Active; Activity (Staphylococcus aureus [42]): Active; Activity (Staphylococcus aureus [43]): Active; Activity (Staphylococcus aureus [44]): Active; Activity (Staphylococcus aureus [45]): Active; Ratio (Staphylococcus aureus [46]): 8; MIC (Staphylococcus aureus [47]): 0.063 µg/mL; MBC (Staphylococcus aureus [48]): 0.5 µg/mL; Activity (Staphylococcus aureus [49]): Active; Activity (Staphylococcus aureus [50]): Active; Activity (Staphylococcus aureus [51]): Active; Activity (Staphylococcus aureus [52]): Active
